# Data published in PMC12439338, “Designer amphiphilic helical peptide-decorated nanomicelles enable simultaneous inflammation control and triple-destruction of bacteria for treating bacterial pneumonia and sepsis” (Theranostics, 2025).
# Where a SMILES comes first, the peptide text is derived from it.
# Legend:
# [1] = right after preparation and overnight storage
# [2] = test system: bacteria-induced sepsis mouse models; settings: cited from earlier work
# Description: The gene expressions of TLR2 and TLR4 in these patients were also correlated with that of the inflammatory cytokine IL1B (Figure S1C-F). These analyses together with reported literatures indeed confirmed the TLR2 and TLR4 up-regulation as a strong pathogenic factor in sepsis patients. Moreover, studies have shown that TLR4 knockout mice ...
# [3] = test system: LPS / TLR4; parameters: method as in 3 sources, ref 25 = [25]; PMID 34183393; doi:10.1073/pnas.2101721118; 25 Schromm AB Paulowski L Kaconis Y Kopp F Koistinen M Donoghue A Cathelicidin and PMB neutralize endotoxins by multifactorial mechanisms including LPS interaction and targeting of host cell membranes ||| ref 18, 19 = [18]; PMID 17237433; doi:10.4049/jimmunol.178.3.1829; 18 Di Nardo A Braff MH Taylor KR Na C Granstein RD McInturff JE Cathelicidin antimicrobial peptides block dendritic cell TLR4 activation and allergic contact sensitization J Immunol 2007 178 1829 34 1 || [19]; PMID 32582207; doi:10.3389/fimmu.2020.01137; 19 Scheenstra MR van Harten RM Veldhuizen EJA Haagsman HP Coorens M Cathelicidins modulate TLR-activation and inflammation Front Immunol 2020 11 1137 32582207 10.3389/fimmu.2020.01137 PMC7296178 ||| ref 44 = [44]; PMID 31364070; doi:10.1007/978-3-030-16373-0_4; 44 Li Z Velkov T Polymyxins: mode of action Adv Exp Med Biol 2019 1145 37 54 31364070 10.1007/978-3-030-16373-0_4; settings: cited from earlier work
# Description: Bioactive peptides are functional biopolymers that can be de novo designed or derived from nature with immunoregulatory and antimicrobial activities. For example, naturally existed antimicrobial peptides (AMPs) are key players in the host-defense mechanism against the invasion of various pathogens including bacteria, fungi, viruses and parasites, [17], through the disruption of microorganism membranes. This working mechanism makes AMPs more advantageous over traditional antibiotics due to less chance for the development of drug resistance. In addition to elimination of microbes, some AMPs ... || Polymyxin B (PMB), a cationic cyclic peptide, is one of the last-line antibiotics to treat drug-resistant bacterial infection in the clinic. […] To assess the potency of our newly designed R18, we made the head-to-head comparison between R18 and polymyxin B on their TLR4 and TLR2 inhibitory activities.
# [4] = test system: TLR4/MD-2 complex; parameters: method as in PMID 35238667; settings: cited from earlier work
# [5] = test system: TLR2 signaling (Pam3CSK4-induced NF-κB/AP-1 activation) in THP-1 reporter cell-derived macrophages; assay: NF-κB/AP-1 reporter assay, Pam3CSK4 (TLR2); format: cell-based, human; settings: 2.5, 5 and 10 μM, Pam3CSK4 10 ng/mL, co-treatment, N = 3
# Description: (§1) Cell culture. THP-1 cells were cultured in the RPMI 1640 complete medium supplemented with 10% FBS, 2 mM L-glutamine, and 1 mM sodium pyruvate, in a cell incubator containing 5% CO2 at 37°C. Zeocin (200 μg/mL or 100 μg/mL) was added to the complete medium as the selection pressure for THP-1-XBlue or THP-1-ISG reporter cells. Cells were seeded into a 96-well plate (1×10^5 cells/well) or a 24-well plate (5×10^5 cells/well), and differentiated into macrophages with PMA (50 ng/mL) for 24 h. […] The culture medium supernatants and cell lysates were collected for further analysis.
# (§2) NF-κB/AP-1 and IRF reporter assay. THP-1-XBlue and THP-1-ISG reporter cells were used to assess the activation of NF-κB/AP-1 and IRF, respectively. After treatments, the culture medium (20 μL per well) was collected and mixed with the Quanti-Blue solution (180 μL) in a clean 96-well plate, which was incubated for 1-2 h at 37°C until the solution color turned into dark purple. The solution absorption at 655 nm was acquired on a microplate reader (TECAN, Mannedorf, Zurich, Switzerland).
# [6] = test system: TLR4 signaling (LPS-induced NF-κB/AP-1 and IRF activation) in THP-1 reporter cell-derived macrophages; assay: NF-κB/AP-1 and IRF reporter assay, LPS (TLR4); format: cell-based, human
# Description: as §1, §2
# [7] = cited from earlier work
# Description: (§3) The fast-increasing cases of sepsis or pneumonia caused by multidrug-resistant Gram-negative bacteria in the clinics have become a global health emergency, [30]. Currently, the peptide-based polymyxin B is the last line of antibiotics to fight multidrug-resistant Gram-negative bacteria. […] Th ...
# [8] = test system: Gram-positive bacterial infection; settings: cited from earlier work
# Description: as §3
compound,measurement,setting,value
CC(C)C[C@H](NC(=O)[C@H](CC(C)C)NC(=O)[C@H](CCCNC(=N)N)NC(=O)[C@H](Cc1c[nH]c2ccccc12)NC(=O)[C@H](CC(C)C)NC(=O)[C@H](CCCNC(=N)N)NC(=O)[C@H](CCCNC(=N)N)NC(=O)[C@H](Cc1c[nH]c2ccccc12)NC(=O)[C@H](CC(C)C)NC(=O)[C@H](CCCNC(=N)N)NC(=O)[C@H](CC(C)C)NC(=O)[C@H](Cc1c[nH]c2ccccc12)NC(=O)[C@H](CCCNC(=N)N)NC(=O)[C@H](CCCNC(=N)N)NC(=O)[C@H](CC(C)C)NC(=O)[C@H](Cc1c[nH]c2ccccc12)NC(=O)[C@@H](N)CCCNC(=N)N)C(=O)N[C@@H](CCCNC(=N)N)C(N)=O [R18] (H-RWLRRWLRLWRRLWRLLR-NH2),stability and dispersibility in PBS,[1],tended to form milky colloidal suspensions and precipitate overnight
CCOC(=O)C1=CCCC[C@H]1S(=O)(=O)Nc1ccc(F)cc1Cl [TAK-242],disease severity in sepsis mouse models,[2],successfully reduced the disease severity in bacteria-induced sepsis mouse models
LL-37: human host-defense peptide cathelicidin,modulation of TLR4-triggered responses via LPS binding,[3],capable of modulating TLR4-triggered inflammatory responses
papiliocin,binding to TLR4/MD-2,[4],directly bind to the TLR4/MD-2 complex in order to block LPS-TLR4 interactions
polymyxin B,inhibition of Pam3CSK4-induced NF-κB/AP-1 activation,[5],had no effect on TLR2 inhibition
same,inhibition of LPS-induced NF-κB/AP-1 and IRF activation,[6],able to effectively inhibit LPS-induced activation
same,clinical toxicity,[7],has neurotoxicity and often causes some serious kidney problems
same,effectiveness against Gram-positive bacterial infection and inflammation,[8],not effective against Gram-positive bacterial infection and the associated inflammation
same,TLR4-mediated inflammation inhibition by antagonizing LPS,[3],capable of inhibiting TLR4-mediated inflammatory responses by antagonizing LPS
same,TLR4 antagonism by LPS neutralization,[3],TLR4 antagonist by neutralizing the bacterial product LPS
